One experiment deals with STAT6 bla-RA1 cells. Put plainly: STAT6 Assay. The experiment is classed as cell-based. The settings on record: stimulated with recombinant human interleukin 4 10 ng/mL; CD40 ligand; beta-lactamase reporter. The method, then:
Twenty-five μL of a STAT6 bla-RA1 (Invitrogen #K1243) cell suspension was seeded with a density of 30-40,000 cells/well in 384-well Black View-plates (PerkinElmer #6007460) with clear bottom in assay medium (Opti-MEM (Invitrogen #11058-021)+0.5% heat inactivated fetal bovine Serum (Invitrogen #10082-147)+1% non-essential amino acids (Invitrogen #11140-050)+1% sodium pyruvate (Invitrogen #11360-070)+1% penicillin/streptomycin (Invitrogen #15140-122)); containing 550 ng/mL of CD40 ligand (Invitrogen #PHP0025). The cell plates were incubated overnight in a humidified 37° C. air/CO2 (95%/5%) incubator. The following day, 125 nL of solutions of test compounds and reference compounds were transferred to cell plates using the Labcyte Echo 550 liquid handler. The plates were then incubated for 1 h in a humidified 37° C. air/CO2 (95%/5%) incubator. Hereafter recombinant human interleukin 4 (Invitrogen #PHC0045) were added to the plates also using the Labcyte Echo 550 to a final concentration of 10 ng/mL. The cells were then incubated for 4½-5 h in a humidified 37° C. air/CO2 (95/b/5%) incubator. 8 μL of LiveBLAzer substrate mixture (Invitrogen #K1095) were then added to the assay plates, which were incubated overnight at RT. Fluorescence was then measured: Excitation: 405 nm; Emission: 460 nm (green channel), Emission: 535 nm (blue channel). Background was subtracted in both emission channels and the ratio 460/535 nm was calculated for each well.

For experiment [1], the target named is T1, Human baculovirus-expressed Janus kinase (JAK) 2 (Homo sapiens, UniProt O60674).
T1 construct: All four purified enzymes contain only the catalytic domain; His-tag (N); purchased Carna Biosciences, Inc 08-045; host or cells: baculovirus expression system
Put plainly: JAK2 kinase assay (HTRF). The experiment is classed as biochemical. To be noted: catalytic domain, ATP at Km (4 μM), 20 min. As to the method:
(§1) Human baculovirus-expressed Janus kinase (JAK) 1, 2, 3 and tyrosin kinase (TYK) 2 were purchased from Carna Biosciences, Inc (#08-144, -045, -046, -147 resp.). All four purified enzymes contain only the catalytic domain. JAK1 (aa 850-1154) and TYK2 (aa 871-1187) are expressed with an N-terminally fused GST-tag, and JAK2 and JAK3 with an N-terminally fused His-tag. Inhibition of phosphorylation of a synthetic peptide was measured in an HTRF-based assay (CisBio #62TKOPEC). First, 75 nL of test compound solution (100% DMSO) was added to a white shallow 384-well plate (NUNC #264706) using a Labcyte ECHO 550 liquid handler. Thereafter, 1 μL of compound dilution buffer (50 mM HEPES, 0.05% bovine serum albumin) and 2 μL of TK solution (TK substrate-biotin in kinase buffer [1× enzymatic buffer from HTRFKinEASE TK kit, 1 mM DTT]) was added. Then, 5 μL kinase-ATP mix (prepared in kinase buffer) was added to the wells and the plates were incubated at RT for 20 (JAK2, 3 and TYK2) to 40 (JAK1) min. For all four kinases a concentration of ATP that corresponded to the Km for ATP was used. The final concentrations of buffers, substrate, kinase and ATP were: JAK1: 50 mM Hepes buffer pH 7.0, 0.01% BSA, 10 mM MgCl2, 1 mM DTT, 7 μM ATP, 50 nM SEB, 1 μM TK Substrate-Biotin and 5 ng JAK1; JAK2: 50 mM Hepes buffer pH 7.0, 0.01% BSA, 5 mM MgCl2, 1 mM DTT, 4 μM ATP, 1 μM TK Substrate-Biotin and 0.1 ng JAK2; JAK3: 50 mM Hepes buffer pH 7.0, 0.01% BSA, 5 mM MgCl2, 1 mM DTT, 2 μM ATP, 1 μM TK Substrate-Biotin and 0.3 ng JAK3; TYK2: 50 mM Hepes buffer pH 7.0, 0.01% BSA, 5 mM MgCl2, 1 mM DTT, 13 μM ATP, 50 nM SEB, 1 μM TK Substrate-Biotin and 0.8 ng TYK2. […] A PerkinElmer Envision reader was used to quantify the HTRF signal using the following filters; 320 nm excitation filter, 665 nm emission filter and a 615 nm 2nd emission filter. A ratio ((665/615)×104) was calculated for each well.
(Time-resolved FRET reads energy transfer from a long-lived donor to a nearby acceptor.)

Experiment [2] deals with T2, Human baculovirus-expressed tyrosin kinase (TYK) 2 (Homo sapiens, UniProt P29597).
T2 construct: JAK1 (aa 850-1154) and TYK2 (aa 871-1187) are expressed with an N-terminally fused GST-tag; GST (N); purchased Carna Biosciences, Inc 08-147; host or cells: baculovirus expression system
T2 sequence (P29597 871-1187): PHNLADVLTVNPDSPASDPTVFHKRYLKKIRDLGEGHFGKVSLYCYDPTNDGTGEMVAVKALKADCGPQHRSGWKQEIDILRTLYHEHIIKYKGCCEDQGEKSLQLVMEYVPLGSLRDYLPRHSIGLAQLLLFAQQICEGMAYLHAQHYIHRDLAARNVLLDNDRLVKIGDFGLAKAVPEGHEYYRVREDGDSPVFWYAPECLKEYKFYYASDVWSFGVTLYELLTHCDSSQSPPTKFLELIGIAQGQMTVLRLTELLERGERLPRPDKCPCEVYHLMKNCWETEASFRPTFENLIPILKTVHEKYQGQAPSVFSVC
Put plainly: TYK2 kinase assay (HTRF). The experiment is classed as biochemical. The settings on record: catalytic domain, ATP at Km (13 μM), 20 min. The method, then: as §1

For experiment [3], the target named is T3, Human baculovirus-expressed Janus kinase (JAK) 1 (Homo sapiens, UniProt P23458).
T3 construct: JAK1 (aa 850-1154) and TYK2 (aa 871-1187) are expressed with an N-terminally fused GST-tag; GST (N); purchased Carna Biosciences, Inc 08-144; host or cells: baculovirus expression system
The experiment can be described thus: JAK1 kinase assay (HTRF). Format: biochemical. The settings on record: catalytic domain, ATP at Km (7 μM), 40 min. The method, then: as §1

The target in experiment [4] is T4, Human baculovirus-expressed Janus kinase (JAK) 3 (Homo sapiens, UniProt P52333).
T4 construct: All four purified enzymes contain only the catalytic domain; His-tag (N); purchased Carna Biosciences, Inc 08-046; host or cells: baculovirus expression system
Put plainly: JAK3 kinase assay (HTRF). Format: biochemical. The settings on record: catalytic domain, ATP at Km (2 μM), 20 min. The method, then:
as §1

Another experiment deals with STAT5 irfi-bla TF1 cells. Put plainly: STAT5 Assay. The settings on record: TF-1; stimulated with recombinant human erythropoietin (EPO) 10 ng/mL; beta-lactamase reporter. Format: cell-based. As to the method:
Twenty-five μL of a STAT5 irfi-bla TF1 (Invitrogen #K1219) cell suspension was seeded with a density of about 10,000 cells/well in 384-well Black View-plates (PerkinElmer #6007460) with clear bottom in assay medium (Opti-MEM (Invitrogen #11058-021)+0.5% heat inactivated fetal bovine Serum (Invitrogen #10082-147)+1% non-essential amino acids (Invitrogen #11140-050)+1% sodium pyruvate (Invitrogen #11360-070)+1% penicillin/streptomycin (Invitrogen #15140-122)). The cell plates were incubated overnight in a humidified 37° C. air/CO2 (95%/5%) incubator. The following day, 125 nL of solutions of test compounds and reference compounds were transferred to cell plates using the Labcyte Echo 550 liquid handler. The plates were then incubated for 1 h in a humidified 37° C. air/CO2 (95%/5%) incubator. Hereafter recombinant human erythropoietin (EPO) (Invitrogen #PHC9634) was added to the plates also using the Labcyte Echo 550 to a final concentration of 10 ng/mL. The cells were then incubated for 4½-5 h in a humidified 37° C. air/CO2 (95%/5%) incubator. 8 μL of LiveBLAzer substrate mixture (Invitrogen #K1095) were then added to the assay plates, which were then incubated overnight at RT. Fluorescence was then measured: Excitation: 405 nm; Emission: 460 nm (green channel), Emission: 535 nm (blue channel). Background was subtracted in both emission channels and the ratio 460/535 nm was calculated for each well.

pEC50: −log10 of the molar value.

T3 sequence (P23458 850-1154): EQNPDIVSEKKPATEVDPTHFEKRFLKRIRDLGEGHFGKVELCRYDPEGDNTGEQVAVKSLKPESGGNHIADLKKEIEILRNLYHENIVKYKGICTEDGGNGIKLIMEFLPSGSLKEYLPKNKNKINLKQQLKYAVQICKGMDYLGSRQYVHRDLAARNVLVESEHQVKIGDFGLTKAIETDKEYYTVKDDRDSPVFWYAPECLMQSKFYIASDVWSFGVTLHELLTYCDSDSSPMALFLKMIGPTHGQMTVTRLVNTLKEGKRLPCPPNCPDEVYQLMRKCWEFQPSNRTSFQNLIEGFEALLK
T1 sequence (O60674 849-1124 limits assumed): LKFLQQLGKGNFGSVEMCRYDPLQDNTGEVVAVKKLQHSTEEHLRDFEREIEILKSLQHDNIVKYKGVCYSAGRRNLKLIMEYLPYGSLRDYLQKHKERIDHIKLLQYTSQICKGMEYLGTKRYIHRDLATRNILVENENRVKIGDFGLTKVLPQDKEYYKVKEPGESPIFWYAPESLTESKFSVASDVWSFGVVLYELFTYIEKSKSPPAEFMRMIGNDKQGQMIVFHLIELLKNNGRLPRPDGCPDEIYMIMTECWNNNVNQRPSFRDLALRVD
T4 sequence (P52333 822-1111 limits assumed): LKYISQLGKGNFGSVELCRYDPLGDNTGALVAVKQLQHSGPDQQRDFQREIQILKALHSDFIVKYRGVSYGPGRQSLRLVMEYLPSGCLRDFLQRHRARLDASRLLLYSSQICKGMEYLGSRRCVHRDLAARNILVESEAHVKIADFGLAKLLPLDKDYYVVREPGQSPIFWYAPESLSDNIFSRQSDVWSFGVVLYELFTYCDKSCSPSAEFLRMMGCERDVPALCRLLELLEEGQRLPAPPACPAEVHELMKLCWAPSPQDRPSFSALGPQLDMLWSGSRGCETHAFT

Usually pEC50 stands for the negative decadic logarithm of the EC50, by convention in mol/L. For the compound `CNc1ncc2nc(C(C)O)n([C@H]3CC[C@H](CC#N)CC3)c2n1` (mixture of isomers) [Compound 2, 2-[trans-4-[8-(1-Hydroxyethyl)-2-(methylamino)purin-9-yl]cyclohexyl]acetonitrile], the pEC50 in the experiment on STAT6 bla-RA1 cells was 6.67; in experiment [1], 6.56; in experiment [2], 7.33; in experiment [3], 8.05; in experiment [4], 6.10; in the experiment with STAT5 irfi-bla TF1 cells, 4.89.

On to `CNc1ncc2nc([C@@H](C)O)n([C@H]3CC[C@H](CC#N)CC3)c2n1` [Compound 1, 2-[trans-4-[8-[(1R)-1-Hydroxyethyl]-2-(methylamino)purin-9-yl]cyclohexyl]acetonitrile], for which the pEC50 was 6.84 in the experiment with STAT6 bla-RA1 cells; 6.80 in experiment [1]; 7.72 in experiment [2]; 8.30 in experiment [3]; 6.22 in experiment [4]; 5.28 in the experiment with STAT5 irfi-bla TF1 cells.

`[2H]C([2H])([2H])Nc1ncc2nc([C@@H](C)O)n([C@H]3CC[C@H](CC#N)CC3)c2n1` [Compound 3, 2-[trans-4-[8-[(1R)-1-Hydroxyethyl]-2-(trideuteriomethylamino)purin-9-yl]cyclohexyl]acetonitrile]: the pEC50 in the experiment with STAT6 bla-RA1 cells was 6.85; in experiment [1] it was 6.89; in experiment [2], 7.89; in experiment [3], 8.52; in experiment [4], 6.29; with STAT5 irfi-bla TF1 cells it was 5.31.

The values above are taken from patent US20210269447A1, “NOVEL AMINO-IMIDAZOPYRIMIDINE DERIVATIVES AS JANUS KINASE INHIBITORS AND PHARMACEUTICAL USE THEREOF” (LEO Pharma A/S, priority 2018, published 2021).
